Measured values from PubChem BioAssay (NCI).
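Assay format: 96-well plates, 48-hour exposure. The concentration for full growth arrest is given as TGI.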

What was measured:
Test in all cases: NCI anticancer screen, dose series, 48 h
786-0 renal = test system: 786-0 renal
A498 renal = test system: A498 renal
A549 NSCLC = test system: A549 NSCLC
ACHN renal = test system: ACHN renal
BT-549 breast = test system: BT-549 breast
CAKI-1 renal = test system: CAKI-1 renal
CCRF-CEM leukemia = test system: CCRF-CEM leukemia
COLO 205 colon = test system: COLO 205 colon
DU-145 prostate = test system: DU-145 prostate
EKVX NSCLC = test system: EKVX NSCLC
HCC-2998 colon = test system: HCC-2998 colon
HCT-116 colon = test system: HCT-116 colon
HCT-15 colon = test system: HCT-15 colon
HL-60(TB) leukemia = test system: HL-60(TB) leukemia
HOP-62 NSCLC = test system: HOP-62 NSCLC
HOP-92 NSCLC = test system: HOP-92 NSCLC
HS 578T breast = test system: HS 578T breast
HT29 colon = test system: HT29 colon
IGROV1 ovarian = test system: IGROV1 ovarian
K-562 leukemia = test system: K-562 leukemia
KM12 colon = test system: KM12 colon
LOX IMVI melanoma = test system: LOX IMVI melanoma
M14 melanoma = test system: M14 melanoma
MALME-3M melanoma = test system: MALME-3M melanoma
MCF7 breast = test system: MCF7 breast
MDA-N = test system: MDA-N
MOLT-4 leukemia = test system: MOLT-4 leukemia
NCI-H226 lung = test system: NCI-H226 lung
NCI-H23 lung = test system: NCI-H23 lung
NCI-H460 lung = test system: NCI-H460 lung
NCI-H522 lung = test system: NCI-H522 lung
NCI/ADR-RES ovarian = test system: NCI/ADR-RES ovarian
OVCAR-3 ovarian = test system: OVCAR-3 ovarian
OVCAR-4 ovarian = test system: OVCAR-4 ovarian
OVCAR-5 ovarian = test system: OVCAR-5 ovarian
OVCAR-8 ovarian = test system: OVCAR-8 ovarian
PC-3 prostate = test system: PC-3 prostate
RPMI-8226 leukemia = test system: RPMI-8226 leukemia
RXF 393 renal = test system: RXF 393 renal
SF-268 CNS = test system: SF-268 CNS
SF-295 CNS = test system: SF-295 CNS
SF-539 CNS = test system: SF-539 CNS
SK-MEL-2 melanoma = test system: SK-MEL-2 melanoma
SK-MEL-28 melanoma = test system: SK-MEL-28 melanoma
SK-MEL-5 melanoma = test system: SK-MEL-5 melanoma
SK-OV-3 ovarian = test system: SK-OV-3 ovarian
SN12C renal = test system: SN12C renal
SNB-19 CNS = test system: SNB-19 CNS
SNB-75 CNS = test system: SNB-75 CNS
SR leukemia = test system: SR leukemia
SW-620 colon = test system: SW-620 colon
T-47D breast = test system: T-47D breast
TK-10 renal = test system: TK-10 renal
U251 CNS = test system: U251 CNS
UACC-257 melanoma = test system: UACC-257 melanoma
UO-31 renal = test system: UO-31 renal
MDA-MB-231 breast = test system: MDA-MB-231 breast
UACC-62 melanoma = test system: UACC-62 melanoma

SMILES: Fc1ccc(F)c(C=NC23CC4CC(CC(C4)C2)C3)c1
- TGI (786-0 renal): > 10 µM
- TGI (A498 renal): > 10 µM
- TGI (A549 NSCLC): > 10 µM
- TGI (ACHN renal): > 10 µM
- TGI (BT-549 breast): > 10 µM
- TGI (CAKI-1 renal): > 10 µM
- TGI (CCRF-CEM leukemia): > 10 µM
- TGI (COLO 205 colon): > 10 µM
- TGI (DU-145 prostate): > 10 µM
- TGI (EKVX NSCLC): > 10 µM
- TGI (HCC-2998 colon): > 10 µM
- TGI (HCT-116 colon): > 10 µM
- TGI (HCT-15 colon): > 10 µM
- TGI (HL-60(TB) leukemia): 6.94 µM
- TGI (HOP-62 NSCLC): > 10 µM
- TGI (HOP-92 NSCLC): > 10 µM
- TGI (HS 578T breast): > 10 µM
- TGI (HT29 colon): > 10 µM
- TGI (IGROV1 ovarian): > 10 µM
- TGI (K-562 leukemia): > 10 µM
- TGI (KM12 colon): > 10 µM
- TGI (LOX IMVI melanoma): > 10 µM
- TGI (M14 melanoma): > 10 µM
- TGI (MALME-3M melanoma): > 10 µM
- TGI (MCF7 breast): > 10 µM
- TGI (MDA-N): > 10 µM
- TGI (MOLT-4 leukemia): > 10 µM
- TGI (NCI-H226 lung): > 10 µM
- TGI (NCI-H23 lung): > 10 µM
- TGI (NCI-H460 lung): > 10 µM
- TGI (NCI-H522 lung): > 10 µM
- TGI (NCI/ADR-RES ovarian): > 10 µM
- TGI (OVCAR-3 ovarian): > 10 µM
- TGI (OVCAR-4 ovarian): > 10 µM
- TGI (OVCAR-5 ovarian): > 10 µM
- TGI (OVCAR-8 ovarian): > 10 µM
- TGI (PC-3 prostate): > 10 µM
- TGI (RPMI-8226 leukemia): > 10 µM
- TGI (RXF 393 renal): > 10 µM
- TGI (SF-268 CNS): > 10 µM
- TGI (SF-295 CNS): > 10 µM
- TGI (SF-539 CNS): > 10 µM
- TGI (SK-MEL-2 melanoma): > 10 µM
- TGI (SK-MEL-28 melanoma): > 10 µM
- TGI (SK-MEL-5 melanoma): > 10 µM
- TGI (SK-OV-3 ovarian): > 10 µM
- TGI (SN12C renal): > 10 µM
- TGI (SNB-19 CNS): > 10 µM
- TGI (SNB-75 CNS): > 10 µM
- TGI (SR leukemia): > 10 µM
- TGI (SW-620 colon): > 10 µM
- TGI (T-47D breast): > 10 µM
- TGI (TK-10 renal): > 10 µM
- TGI (U251 CNS): > 10 µM
- TGI (UACC-257 melanoma): > 10 µM
- TGI (UO-31 renal): > 10 µM

SMILES: C/C(=C\CCC1=CC(=O)OC1)CCC1C2C(=O)CC(C)[C@@]3(C)CC[C@]1(C)[C@@]23C (stereo partly specified)
- TGI (786-0 renal): > 10 µM
- TGI (A549 NSCLC): > 10 µM
- TGI (CAKI-1 renal): > 10 µM
- TGI (CCRF-CEM leukemia): > 10 µM
- TGI (COLO 205 colon): > 10 µM
- TGI (DU-145 prostate): > 10 µM
- TGI (EKVX NSCLC): > 10 µM
- TGI (HCC-2998 colon): > 10 µM
- TGI (HCT-15 colon): > 10 µM
- TGI (HL-60(TB) leukemia): > 10 µM
- TGI (HOP-62 NSCLC): > 10 µM
- TGI (HT29 colon): > 10 µM
- TGI (IGROV1 ovarian): > 10 µM
- TGI (K-562 leukemia): > 10 µM
- TGI (KM12 colon): > 10 µM
- TGI (LOX IMVI melanoma): > 10 µM
- TGI (M14 melanoma): > 10 µM
- TGI (MALME-3M melanoma): > 10 µM
- TGI (MCF7 breast): > 10 µM
- TGI (MDA-MB-231 breast): > 10 µM
- TGI (MDA-N): > 10 µM
- TGI (MOLT-4 leukemia): > 10 µM
- TGI (NCI-H23 lung): > 10 µM
- TGI (OVCAR-8 ovarian): > 10 µM
- TGI (PC-3 prostate): > 10 µM
- TGI (RPMI-8226 leukemia): > 10 µM
- TGI (RXF 393 renal): > 10 µM
- TGI (SF-268 CNS): > 10 µM
- TGI (SF-295 CNS): > 10 µM
- TGI (SK-MEL-28 melanoma): > 10 µM
- TGI (SK-MEL-5 melanoma): > 10 µM
- TGI (SK-OV-3 ovarian): > 10 µM
- TGI (SN12C renal): > 10 µM
- TGI (SNB-75 CNS): > 10 µM
- TGI (SR leukemia): > 10 µM
- TGI (SW-620 colon): > 10 µM
- TGI (T-47D breast): > 10 µM
- TGI (TK-10 renal): > 10 µM
- TGI (UACC-257 melanoma): > 10 µM
- TGI (UACC-62 melanoma): > 10 µM
